Results: PubChem BioAssay (NCI)
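Following 48 hours of exposure in 96-well plates, responses at five concentrations were used to interpolate endpoints linearly. TGI is the concentration that stops growth completely.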

Columns and labels:
Test in all cases: inhibition of tumour cell growth, NCI panel, 48 h
SR leukemia = tested on: SR leukemia
EKVX NSCLC = tested on: EKVX NSCLC
A498 renal = tested on: A498 renal
UO-31 renal = tested on: UO-31 renal
OVCAR-8 ovarian = tested on: OVCAR-8 ovarian
HCT-15 colon = tested on: HCT-15 colon
HL-60(TB) leukemia = tested on: HL-60(TB) leukemia
RPMI-8226 leukemia = tested on: RPMI-8226 leukemia
MDA-MB-435 = tested on: MDA-MB-435
NCI-H522 lung = tested on: NCI-H522 lung
HOP-92 NSCLC = tested on: HOP-92 NSCLC
OVCAR-3 ovarian = tested on: OVCAR-3 ovarian
IGROV1 ovarian = tested on: IGROV1 ovarian
T-47D breast = tested on: T-47D breast
U251 CNS = tested on: U251 CNS
SK-MEL-2 melanoma = tested on: SK-MEL-2 melanoma
CCRF-CEM leukemia = tested on: CCRF-CEM leukemia
OVCAR-4 ovarian = tested on: OVCAR-4 ovarian
ACHN renal = tested on: ACHN renal
HOP-62 NSCLC = tested on: HOP-62 NSCLC
SF-268 CNS = tested on: SF-268 CNS
A549 NSCLC = tested on: A549 NSCLC
HCC-2998 colon = tested on: HCC-2998 colon
UACC-62 melanoma = tested on: UACC-62 melanoma
OVCAR-5 ovarian = tested on: OVCAR-5 ovarian
MDA-MB-231 breast = tested on: MDA-MB-231 breast
NCI-H460 lung = tested on: NCI-H460 lung
K-562 leukemia = tested on: K-562 leukemia
NCI/ADR-RES ovarian = tested on: NCI/ADR-RES ovarian
NCI-H23 lung = tested on: NCI-H23 lung
MDA-N = tested on: MDA-N
DU-145 prostate = tested on: DU-145 prostate
MALME-3M melanoma = tested on: MALME-3M melanoma
SF-539 CNS = tested on: SF-539 CNS
SK-OV-3 ovarian = tested on: SK-OV-3 ovarian
RXF 393 renal = tested on: RXF 393 renal
PC-3 prostate = tested on: PC-3 prostate
M14 melanoma = tested on: M14 melanoma
SN12C renal = tested on: SN12C renal
TK-10 renal = tested on: TK-10 renal
786-0 renal = tested on: 786-0 renal
SW-620 colon = tested on: SW-620 colon
SK-MEL-28 melanoma = tested on: SK-MEL-28 melanoma
NCI-H226 lung = tested on: NCI-H226 lung
CAKI-1 renal = tested on: CAKI-1 renal
LOX IMVI melanoma = tested on: LOX IMVI melanoma
HT29 colon = tested on: HT29 colon
SK-MEL-5 melanoma = tested on: SK-MEL-5 melanoma
SNB-19 CNS = tested on: SNB-19 CNS
SNB-75 CNS = tested on: SNB-75 CNS
SF-295 CNS = tested on: SF-295 CNS
HS 578T breast = tested on: HS 578T breast
COLO 205 colon = tested on: COLO 205 colon
HCT-116 colon = tested on: HCT-116 colon
MOLT-4 leukemia = tested on: MOLT-4 leukemia
BT-549 breast = tested on: BT-549 breast
UACC-257 melanoma = tested on: UACC-257 melanoma
KM12 colon = tested on: KM12 colon
MCF7 breast = tested on: MCF7 breast

O=S1(=O)OCCOS(=O)(=O)C1(F)Cc1ccccc1
TGI (SR leukemia): > 100 µM
TGI (EKVX NSCLC): > 100 µM
TGI (A498 renal): > 100 µM
TGI (UO-31 renal): > 100 µM
TGI (OVCAR-8 ovarian): > 100 µM
TGI (HCT-15 colon): > 100 µM
TGI (HL-60(TB) leukemia): > 100 µM
TGI (RPMI-8226 leukemia): > 100 µM
TGI (MDA-MB-435): > 100 µM
TGI (NCI-H522 lung): > 100 µM
TGI (HOP-92 NSCLC): > 100 µM
TGI (OVCAR-3 ovarian): > 100 µM
TGI (IGROV1 ovarian): > 100 µM
TGI (T-47D breast): > 100 µM
TGI (U251 CNS): > 100 µM
TGI (SK-MEL-2 melanoma): > 100 µM
TGI (CCRF-CEM leukemia): > 100 µM
TGI (OVCAR-4 ovarian): > 100 µM
TGI (ACHN renal): > 100 µM
TGI (HOP-62 NSCLC): > 100 µM
TGI (SF-268 CNS): > 100 µM
TGI (A549 NSCLC): > 100 µM
TGI (HCC-2998 colon): > 100 µM
TGI (UACC-62 melanoma): > 100 µM
TGI (OVCAR-5 ovarian): > 100 µM
TGI (MDA-MB-231 breast): > 100 µM
TGI (NCI-H460 lung): > 100 µM
TGI (K-562 leukemia): > 100 µM
TGI (NCI/ADR-RES ovarian): > 100 µM
TGI (NCI-H23 lung): > 100 µM
TGI (MDA-N): > 100 µM
TGI (DU-145 prostate): > 100 µM
TGI (MALME-3M melanoma): > 100 µM
TGI (SF-539 CNS): > 100 µM
TGI (SK-OV-3 ovarian): > 100 µM
TGI (RXF 393 renal): > 100 µM
TGI (PC-3 prostate): > 100 µM
TGI (M14 melanoma): > 100 µM
TGI (SN12C renal): > 100 µM
TGI (TK-10 renal): > 100 µM
TGI (786-0 renal): > 100 µM
TGI (SW-620 colon): > 100 µM
TGI (SK-MEL-28 melanoma): > 100 µM
TGI (NCI-H226 lung): > 100 µM
TGI (CAKI-1 renal): > 100 µM
TGI (LOX IMVI melanoma): > 100 µM
TGI (HT29 colon): > 100 µM
TGI (SK-MEL-5 melanoma): > 100 µM
TGI (SNB-19 CNS): > 100 µM
TGI (SNB-75 CNS): > 100 µM
TGI (SF-295 CNS): > 100 µM
TGI (HS 578T breast): > 100 µM
TGI (COLO 205 colon): > 100 µM
TGI (HCT-116 colon): > 100 µM
TGI (MOLT-4 leukemia): > 100 µM

Cc1cc(C)c2c(=N)c3ccccc3n(CCCCCCCCn3c4ccccc4c(=N)c4c(C)cc(C)nc43)c2n1
TGI (EKVX NSCLC): 2.91 µM
TGI (A498 renal): 2.94 µM
TGI (UO-31 renal): 2.81 µM
TGI (OVCAR-8 ovarian): 3.05 µM
TGI (HOP-92 NSCLC): 2.87 µM
TGI (OVCAR-3 ovarian): 3.27 µM
TGI (IGROV1 ovarian): 2.71 µM
TGI (T-47D breast): 3.23 µM
TGI (SK-MEL-2 melanoma): 3.03 µM
TGI (ACHN renal): 2.91 µM
TGI (OVCAR-5 ovarian): 3.69 µM
TGI (BT-549 breast): 3.29 µM
TGI (K-562 leukemia): > 100 µM
TGI (MDA-N): 2.78 µM
TGI (DU-145 prostate): 3.07 µM
TGI (MALME-3M melanoma): 3.11 µM
TGI (UACC-257 melanoma): 3.01 µM
TGI (SK-OV-3 ovarian): 3.18 µM
TGI (PC-3 prostate): 2.86 µM
TGI (M14 melanoma): 3.09 µM
TGI (SN12C renal): 2.94 µM
TGI (TK-10 renal): 4.72 µM
TGI (786-0 renal): 2.28 µM
TGI (SK-MEL-28 melanoma): 3.02 µM
TGI (NCI-H226 lung): 3.38 µM
TGI (CAKI-1 renal): 3.45 µM
TGI (LOX IMVI melanoma): 2.61 µM
TGI (KM12 colon): 1.42 µM
TGI (HT29 colon): 1.16 µM
TGI (SK-MEL-5 melanoma): 3.23 µM
TGI (SNB-19 CNS): 1.85 µM
TGI (SNB-75 CNS): 2.18 µM
TGI (HCT-116 colon): 1.59 µM

C/C(Cc1ccc2c(c1)OCO2)=N\N=c1\sc2ccccc2n1C
TGI (EKVX NSCLC): > 100 µM
TGI (A498 renal): > 100 µM
TGI (UO-31 renal): > 100 µM
TGI (OVCAR-8 ovarian): > 100 µM
TGI (HCT-15 colon): > 100 µM
TGI (HL-60(TB) leukemia): > 100 µM
TGI (RPMI-8226 leukemia): > 100 µM
TGI (MDA-MB-435): > 100 µM
TGI (NCI-H522 lung): > 100 µM
TGI (HOP-92 NSCLC): > 100 µM
TGI (OVCAR-3 ovarian): > 100 µM
TGI (IGROV1 ovarian): > 100 µM
TGI (T-47D breast): > 100 µM
TGI (U251 CNS): > 100 µM
TGI (SK-MEL-2 melanoma): > 100 µM
TGI (CCRF-CEM leukemia): > 100 µM
TGI (OVCAR-4 ovarian): > 100 µM
TGI (ACHN renal): > 100 µM
TGI (HOP-62 NSCLC): > 100 µM
TGI (SF-268 CNS): > 100 µM
TGI (A549 NSCLC): > 100 µM
TGI (HCC-2998 colon): > 100 µM
TGI (UACC-62 melanoma): > 100 µM
TGI (OVCAR-5 ovarian): > 100 µM
TGI (MDA-MB-231 breast): > 100 µM
TGI (BT-549 breast): > 100 µM
TGI (K-562 leukemia): > 100 µM
TGI (NCI/ADR-RES ovarian): > 100 µM
TGI (NCI-H23 lung): > 100 µM
TGI (MDA-N): > 100 µM
TGI (DU-145 prostate): > 100 µM
TGI (MALME-3M melanoma): > 100 µM
TGI (UACC-257 melanoma): > 100 µM
TGI (SF-539 CNS): > 100 µM
TGI (RXF 393 renal): > 100 µM
TGI (PC-3 prostate): > 100 µM
TGI (M14 melanoma): > 100 µM
TGI (MCF7 breast): > 100 µM
TGI (SN12C renal): > 100 µM
TGI (TK-10 renal): > 100 µM
TGI (786-0 renal): > 100 µM
TGI (SW-620 colon): > 100 µM
TGI (SK-MEL-28 melanoma): > 100 µM
TGI (NCI-H226 lung): > 100 µM
TGI (CAKI-1 renal): > 100 µM
TGI (LOX IMVI melanoma): > 100 µM
TGI (KM12 colon): > 100 µM
TGI (HT29 colon): > 100 µM
TGI (SK-MEL-5 melanoma): > 100 µM
TGI (SNB-19 CNS): > 100 µM
TGI (SF-295 CNS): > 100 µM
TGI (HS 578T breast): > 100 µM
TGI (COLO 205 colon): > 100 µM
TGI (HCT-116 colon): > 100 µM
TGI (MOLT-4 leukemia): > 100 µM

CC(C)(C)OC(=O)NC(CSCc1ccc(C(=O)c2ccccc2)cc1)C(=O)N1CCN(CCCCN2c3ccccc3Sc3cc(N=[N+]=[N-])ccc32)CC1 (stereo not given)
TGI (EKVX NSCLC): > 100 µM
TGI (A498 renal): > 100 µM
TGI (UO-31 renal): > 100 µM
TGI (OVCAR-8 ovarian): > 100 µM
TGI (HCT-15 colon): > 100 µM
TGI (HL-60(TB) leukemia): > 100 µM
TGI (MDA-MB-435): > 100 µM
TGI (NCI-H522 lung): > 100 µM
TGI (HOP-92 NSCLC): > 100 µM
TGI (OVCAR-3 ovarian): > 100 µM
TGI (IGROV1 ovarian): > 100 µM
TGI (T-47D breast): > 100 µM
TGI (U251 CNS): > 100 µM
TGI (SK-MEL-2 melanoma): > 100 µM
TGI (CCRF-CEM leukemia): > 100 µM
TGI (OVCAR-4 ovarian): > 100 µM
TGI (ACHN renal): > 100 µM
TGI (HOP-62 NSCLC): > 100 µM
TGI (SF-268 CNS): > 100 µM
TGI (A549 NSCLC): > 100 µM
TGI (HCC-2998 colon): > 100 µM
TGI (UACC-62 melanoma): > 100 µM
TGI (OVCAR-5 ovarian): > 100 µM
TGI (MDA-MB-231 breast): > 100 µM
TGI (BT-549 breast): > 100 µM
TGI (NCI-H460 lung): > 100 µM
TGI (K-562 leukemia): > 100 µM
TGI (NCI/ADR-RES ovarian): > 100 µM
TGI (NCI-H23 lung): > 100 µM
TGI (MDA-N): > 100 µM
TGI (DU-145 prostate): > 100 µM
TGI (MALME-3M melanoma): > 100 µM
TGI (UACC-257 melanoma): > 100 µM
TGI (SF-539 CNS): > 100 µM
TGI (SK-OV-3 ovarian): > 100 µM
TGI (RXF 393 renal): > 100 µM
TGI (PC-3 prostate): > 100 µM
TGI (M14 melanoma): > 100 µM
TGI (MCF7 breast): > 100 µM
TGI (SN12C renal): > 100 µM
TGI (TK-10 renal): > 100 µM
TGI (786-0 renal): > 100 µM
TGI (SW-620 colon): > 100 µM
TGI (SK-MEL-28 melanoma): > 100 µM
TGI (NCI-H226 lung): > 100 µM
TGI (CAKI-1 renal): > 100 µM
TGI (LOX IMVI melanoma): > 100 µM
TGI (KM12 colon): > 100 µM
TGI (HT29 colon): > 100 µM
TGI (SK-MEL-5 melanoma): > 100 µM
TGI (SNB-19 CNS): > 100 µM
TGI (SNB-75 CNS): > 100 µM
TGI (SF-295 CNS): > 100 µM
TGI (HS 578T breast): > 100 µM
TGI (COLO 205 colon): > 100 µM
TGI (HCT-116 colon): > 100 µM
TGI (MOLT-4 leukemia): > 100 µM
